Reference: ChEMBL document CHEMBL1136550, “Discovery of orally bioavailable NK1 receptor antagonists” (Bioorg Med Chem Lett, 2003)
≈ marks a conversion by molar mass, not a printed value. One block for each compound: values may come before it.

How the values were obtained:
[1] = target: T1, Substance-P receptor (Homo sapiens, UniProt P25103); assay: Displacement of [3H]-substance P from human NK1 receptor expressed in CHO cells; format: cell-based
[2] = organism: Rattus norvegicus; assay: Inhibition of contraction induced by 100 mM KCl in isolated rat aorta; format: functional
[3] = tested on: Cavia porcellus; assay: Inhibition of SP-induced pulmonary edema in guinea-pig 60 min after oral administration at a dose of 10 mg/kg; format: functional; conditions: 1 h
[4] = tested on: Caco-2; assay: Caco-2 permeability was measured; format: functional, cell-based; conditions: Homo sapiens
[5] = tested on: Cavia porcellus; assay: Inhibition of SP-induced pulmonary edema in guinea-pig 120 min after oral administration at a dose of 10 mg/kg; format: functional; conditions: 2 h
[6] = tested on: Cavia porcellus; assay: Inhibition of SP-induced pulmonary edema in guinea-pig 30 min after oral administration at a dose of 10 mg/kg; format: functional; conditions: 0.5 h
[7] = tested on: Cavia porcellus; assay: Inhibition of SP-induced pulmonary edema in guinea-pig 240 min after oral administration at a dose of 10 mg/kg; format: functional; conditions: 4 h
[8] = LogD distribution coefficient between octanol and PBS at pH7.4; format: physicochemical; conditions: pH 7.4, read-out: LogD7.4
[9] = Solubility was measured; format: physicochemical
[10] = target: T1, Substance-P receptor; assay: Displacement of [3H]-substance P from human NK1 receptor expressed in CHO cells, at 10e-5 M; format: cell-based
[11] = tested on: Cavia porcellus; assay: Inhibition of SP-induced pulmonary edema in guinea-pig 240 min after oral administration at a dose of 1 mg/kg; format: functional; conditions: 4 h
[12] = tested on: Cavia porcellus; assay: Inhibition of SP-induced pulmonary edema in guinea-pig 30 min after oral administration at a dose of 1 mg/kg; format: functional; conditions: 0.5 h
[13] = tested on: Cavia porcellus; assay: Inhibition of SP-induced pulmonary edema in guinea-pig 60 min after oral administration at a dose of 1 mg/kg; format: functional; conditions: 1 h
[14] = pKa value was evaluated; format: physicochemical

T1 sequence (P25103 whole entry): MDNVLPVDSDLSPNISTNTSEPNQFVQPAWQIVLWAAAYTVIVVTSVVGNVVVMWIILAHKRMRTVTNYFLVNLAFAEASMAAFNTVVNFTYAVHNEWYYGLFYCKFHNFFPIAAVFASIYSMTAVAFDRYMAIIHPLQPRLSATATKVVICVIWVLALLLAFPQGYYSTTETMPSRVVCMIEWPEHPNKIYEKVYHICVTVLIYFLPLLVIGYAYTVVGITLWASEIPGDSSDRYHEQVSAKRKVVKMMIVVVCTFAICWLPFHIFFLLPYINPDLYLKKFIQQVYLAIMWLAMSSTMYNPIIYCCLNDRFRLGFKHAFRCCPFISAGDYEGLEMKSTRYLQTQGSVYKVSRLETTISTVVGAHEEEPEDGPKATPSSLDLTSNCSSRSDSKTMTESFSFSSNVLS

Ki [1]: 1 nM
Compound: COc1cccc(C(COCc2cc(C(F)(F)F)cc(C(F)(F)F)c2)N2CCNCC2)c1 (stereo not drawn)

Ki [1]: 15.8 nM
Compound: FC(F)(F)c1ccc(COCC(c2ccccc2)N2CCNCC2)c(C(F)(F)F)c1 (stereo not drawn)

Ki [1]: 1.58 nM
Compound: FC(F)(F)c1cc(COCC(c2ccccc2Cl)N2CCNCC2)cc(C(F)(F)F)c1 (stereo not drawn)

Ki [1]: 25.1 nM
Compound: Cc1cc(C)cc(COCC(c2ccccc2)N2CCNCC2)c1 (stereo not drawn)

Compound: FC(F)(F)c1cc(COCC(c2ccccc2)N2CCN(CCCCc3nnn[nH]3)CC2)cc(C(F)(F)F)c1 (stereo not drawn)
pD2 [2]: <4 | inhibition in vivo at 10 mg/kg [3]: 99% | Papps [4]: 2.6 ×10⁻⁶ cm/s | inhibition in vivo at 10 mg/kg [5]: 65% | inhibition in vivo at 10 mg/kg [6]: 65% | inhibition in vivo at 10 mg/kg [7]: 20%

Ki [1]: 5.01 nM
Compound: Fc1ccccc1C(COCc1cc(C(F)(F)F)cc(C(F)(F)F)c1)N1CCNCC1 (stereo not drawn)

logD [8]: 2.41 | solubility [9]: 200 µg/mL (≈ 463 µM)
Compound: FC(F)(F)c1cc(COCC(c2ccccc2)N2CCNCC2)cc(C(F)(F)F)c1 (stereo not drawn)
pD2 [2]: 5.38 | Papps [4]: 2.1 ×10⁻⁶ cm/s

inhibition [10]: < 20%
Compound: C[C@@H](OC[C@H](c1ccccc1)N1CCN(CC(=O)O)CC1)c1cc(C(F)(F)F)cc(C(F)(F)F)c1

Ki [1]: 12.6 nM
Compound: Fc1cc(COCC(c2ccccc2)N2CCNCC2)cc(C(F)(F)F)c1 (stereo not drawn)

Ki [1]: 398 nM
Compound: Clc1cccc(COCC(c2ccccc2)N2CCNCC2)c1 (stereo not drawn)

Ki [1]: 200 nM
Compound: Fc1cc(F)cc(COCC(c2ccccc2)N2CCNCC2)c1 (stereo not drawn)

Ki [1]: 1.26 nM
Compound: C[C@H](OC[C@H](c1ccccc1)N1CCN(CC(=O)O)CC1)c1cc(C(F)(F)F)cc(C(F)(F)F)c1

logD [8]: 2.64 | solubility [9]: > 2000 µg/mL
Compound: C[C@H](OC[C@H](c1ccccc1)N1CCN(CCOCC(=O)O)CC1)c1cc(C(F)(F)F)cc(C(F)(F)F)c1
pD2 [2]: <4 | inhibition in vivo at 1 mg/kg [11]: 70% | inhibition in vivo at 1 mg/kg [12]: 77% | Papps [4]: 8.7 ×10⁻⁶ cm/s | inhibition in vivo at 1 mg/kg [13]: 75%

Ki [1]: 5.01 nM
Compound: Brc1cc(Br)cc(COCC(c2ccccc2)N2CCNCC2)c1 (stereo not drawn)

inhibition [10]: < 20%
Compound: C[C@@H](OC[C@@H](c1ccccc1)N1CCN(CCOCC(=O)O)CC1)c1cc(C(F)(F)F)cc(C(F)(F)F)c1

Ki [1]: 2 nM
Compound: FC(F)(F)c1cc(COCC(c2ccccc2)N2CCN(Cc3ccccn3)CC2)cc(C(F)(F)F)c1 (stereo not drawn)

Ki [1]: 79.4 nM
Compound: Fc1ccc(C(COCc2cc(C(F)(F)F)cc(C(F)(F)F)c2)N2CCNCC2)cc1 (stereo not drawn)

inhibition [10]: < 20%
Compound: COc1ccccc1COCC(c1ccccc1)N1CCNCC1 (stereo not drawn)

Ki [1]: 31.6 nM
Compound: FC(F)(F)c1cc(COCC(c2ccc3ccccc3c2)N2CCNCC2)cc(C(F)(F)F)c1 (stereo not drawn)

Ki [1]: 6.31 nM
Compound: COc1ccccc1C(COCc1cc(C(F)(F)F)cc(C(F)(F)F)c1)N1CCNCC1 (stereo not drawn)

logD [8]: 2.71 | Ki [1]: 6.31 nM | solubility [9]: 200 µg/mL (≈ 359 µM)
Compound: FC(F)(F)c1cc(COCC(c2ccccc2)N2CCN(CCCCc3nn[nH]n3)CC2)cc(C(F)(F)F)c1 (stereo not drawn)

Ki [1]: 15.8 nM
Compound: Oc1n[nH]c(CN2CCN(C(COCc3cc(C(F)(F)F)cc(C(F)(F)F)c3)c3ccccc3)CC2)n1 (stereo not drawn)

logD [8]: 4.09 | Ki [1]: 2.51 nM | solubility [9]: 1 µg/mL (≈ 2.05 µM)
Compound: CCCCN1CCN(C(COCc2cc(C(F)(F)F)cc(C(F)(F)F)c2)c2ccccc2)CC1 (stereo not drawn)
pD2 [2]: 4.6 | Papps [4]: 5.2 ×10⁻⁶ cm/s | inhibition in vivo at 10 mg/kg [6]: 62% | inhibition in vivo at 10 mg/kg [7]: 58%

Compound: Clc1ccc(COCC(c2ccccc2)N2CCNCC2)cc1Cl (stereo not drawn)
Ki [1]: 100 nM

inhibition [10]: 50%
Compound: Clc1ccccc1COCC(c1ccccc1)N1CCNCC1 (stereo not drawn)

Ki [1]: 1.58 nM
Compound: FC(F)(F)c1cc(COCC(c2cccc(Cl)c2)N2CCNCC2)cc(C(F)(F)F)c1 (stereo not drawn)

Ki [1]: 10 nM
Compound: O=C(O)CCCCN1CCN(C(COCc2cc(C(F)(F)F)cc(C(F)(F)F)c2)c2ccccc2)CC1 (stereo not drawn)

Ki [1]: 7.94 nM | pKa [14]: 6.2
Compound: NC(=O)CN1CCN([C@H](COCc2cc(C(F)(F)F)cc(C(F)(F)F)c2)c2ccccc2)CC1

Ki [1]: 50.1 nM
Compound: COc1ccc(C(COCc2cc(C(F)(F)F)cc(C(F)(F)F)c2)N2CCNCC2)cc1 (stereo not drawn)

Ki [1]: 3.16 nM
Compound: Clc1cc(Cl)cc(COCC(c2ccccc2)N2CCNCC2)c1 (stereo not drawn)

Ki [1]: 3.16 nM
Compound: Fc1cccc(C(COCc2cc(C(F)(F)F)cc(C(F)(F)F)c2)N2CCNCC2)c1F (stereo not drawn)

Ki [1]: 63.1 nM
Compound: CCOC(=O)N1CCN(C(COCc2cc(C(F)(F)F)cc(C(F)(F)F)c2)c2ccccc2)CC1 (stereo not drawn)

Ki [1]: 7.94 nM
Compound: COc1c(Br)cc(Br)cc1COCC(c1ccccc1)N1CCNCC1 (stereo not drawn)

Ki [1]: 7.94 nM
Compound: FC(F)(F)c1cc(COCC(c2cccs2)N2CCNCC2)cc(C(F)(F)F)c1 (stereo not drawn)

Ki [1]: 6.31 nM
Compound: FC(F)(F)c1cc(COCC(c2ccc(Cl)c(Cl)c2)N2CCNCC2)cc(C(F)(F)F)c1 (stereo not drawn)

inhibition [10]: 50%
Compound: FC(F)(F)Oc1ccccc1COCC(c1ccccc1)N1CCNCC1 (stereo not drawn)

Ki [1]: 3.16 nM
Compound: C[C@H](OC[C@@H](c1ccccc1)N1CCN(CC(=O)O)CC1)c1cc(C(F)(F)F)cc(C(F)(F)F)c1

inhibition [10]: < 20%
Compound: C[C@@H](OC[C@H](c1ccccc1)N1CCN(CCOCC(=O)O)CC1)c1cc(C(F)(F)F)cc(C(F)(F)F)c1

logD [8]: 2.35 | Ki [1]: 15.8 nM | solubility [9]: 1300 µg/mL (≈ 2650 µM)
Compound: O=C(O)CN1CCN(C(COCc2cc(C(F)(F)F)cc(C(F)(F)F)c2)c2ccccc2)CC1 (stereo not drawn)
pD2 [2]: <4 | inhibition in vivo at 10 mg/kg [3]: 76% | Papps [4]: 9.6 ×10⁻⁶ cm/s | inhibition in vivo at 10 mg/kg [5]: 68% | inhibition in vivo at 10 mg/kg [6]: 84% | inhibition in vivo at 10 mg/kg [7]: 53%

Ki [1]: 3.16 nM | pKa [14]: 7.4
Compound: NC(=O)COCCN1CCN(C(COCc2cc(C(F)(F)F)cc(C(F)(F)F)c2)c2ccccc2)CC1 (stereo not drawn)

Ki [1]: 20 nM
Compound: NC(=O)N1CCN(C(COCc2cc(C(F)(F)F)cc(C(F)(F)F)c2)c2ccccc2)CC1 (stereo not drawn)
inhibition in vivo at 10 mg/kg [3]: 47% | inhibition in vivo at 10 mg/kg [5]: 26% | inhibition in vivo at 10 mg/kg [6]: 15%

inhibition [10]: < 20%
Compound: c1ccc(COCC(c2ccccc2)N2CCNCC2)cc1 (stereo not drawn)

Ki [1]: 39.8 nM
Compound: COC(=O)CN1CCN(C(COCc2cc(C(F)(F)F)cc(C(F)(F)F)c2)c2ccccc2)CC1 (stereo not drawn)

logD [8]: 5.2 | Ki [1]: 251 nM | solubility [9]: 0.6 µg/mL (≈ 0.854 µM)
Compound: COc1cc(CN2CCN(C(COCc3cc(C(F)(F)F)cc(C(F)(F)F)c3)c3ccccc3)C(Cc3ccccc3)C2)cc(OC)c1OC (stereo not drawn)

Ki [1]: 158 nM
Compound: FC(F)(F)c1cc(COCC(c2ccco2)N2CCNCC2)cc(C(F)(F)F)c1 (stereo not drawn)

Ki [1]: 1.58 nM
Compound: CN1CCN(C(COCc2cc(C(F)(F)F)cc(C(F)(F)F)c2)c2ccccc2)CC1 (stereo not drawn)

Ki [1]: 1 nM
Compound: Cc1ccccc1C(COCc1cc(C(F)(F)F)cc(C(F)(F)F)c1)N1CCNCC1 (stereo not drawn)

inhibition [10]: < 20%
Compound: C[C@@H](OC[C@@H](c1ccccc1)N1CCN(CC(=O)O)CC1)c1cc(C(F)(F)F)cc(C(F)(F)F)c1

Ki [1]: 63.1 nM
Compound: FC(F)(F)c1cc(COCC(c2ccccc2)N2CCN(Cc3nn[nH]n3)CC2)cc(C(F)(F)F)c1 (stereo not drawn)

logD [8]: 3.26 | Ki [1]: 10 nM | solubility [9]: 2 µg/mL (≈ 4.09 µM) | pKa [14]: 6.2
Compound: NC(=O)CN1CCN([C@@H](COCc2cc(C(F)(F)F)cc(C(F)(F)F)c2)c2ccccc2)CC1
pD2 [2]: 4.27 | Papps [4]: 7.9 ×10⁻⁶ cm/s

logD [8]: 2.17 | Ki [1]: 15.8 nM | solubility [9]: > 2000 µg/mL
Compound: O=C(O)COCCN1CCN(C(COCc2cc(C(F)(F)F)cc(C(F)(F)F)c2)c2ccccc2)CC1 (stereo not drawn)
pD2 [2]: <4 | inhibition in vivo at 10 mg/kg [3]: 61% | Papps [4]: 4.2 ×10⁻⁶ cm/s | inhibition in vivo at 10 mg/kg [5]: 54% | inhibition in vivo at 10 mg/kg [6]: 53% | inhibition in vivo at 10 mg/kg [7]: 29%

inhibition [10]: < 20%
Compound: O=C(O)CCCC(=O)N1CCN(C(COCc2cc(C(F)(F)F)cc(C(F)(F)F)c2)c2ccccc2)CC1 (stereo not drawn)

Ki [1]: 15.8 nM
Compound: FC(F)(F)c1cc(COCC(c2ccccc2)N2CCN(CCN3CCOCC3)CC2)cc(C(F)(F)F)c1 (stereo not drawn)

Ki [1]: 126 nM
Compound: COc1cc(COCC(c2ccccc2)N2CCNCC2)cc(OC)c1OC (stereo not drawn)

Ki [1]: 1.58 nM
Compound: FC(F)(F)c1cc(COCC(c2cccc3ccccc23)N2CCNCC2)cc(C(F)(F)F)c1 (stereo not drawn)

Ki [1]: 7.94 nM
Compound: N#CCN1CCN(C(COCc2cc(C(F)(F)F)cc(C(F)(F)F)c2)c2ccccc2)CC1 (stereo not drawn)

Ki [1]: 3.16 nM
Compound: Cc1cccc(C(COCc2cc(C(F)(F)F)cc(C(F)(F)F)c2)N2CCNCC2)c1 (stereo not drawn)

Ki [1]: 2 nM
Compound: Fc1cccc(C(COCc2cc(C(F)(F)F)cc(C(F)(F)F)c2)N2CCNCC2)c1 (stereo not drawn)
